pIC50: −log10 of the molar value. Values after ≈ are worked out from the molar mass of the structure shown.
Assays:
[1] = tested on: UCLA P-3; assay: Antiproliferative activity against human UCLA-P3 cells; format: functional, cell-based
[2] = tested on: MOLT-4; assay: Antiproliferative activity against human MOLT4 cells; format: functional, cell-based
[3] = target: T1, Receptor tyrosine-protein kinase erbB-2 (Homo sapiens, UniProt P04626); assay: Inhibition of HER2 in human MCF-7 cells after 24 hrs by immunoblotting analysis; format: cell-based
[4] = tested on: SK-BR-3; assay: Growth inhibition of human SKBR3 cells; format: functional, cell-based
[5] = tested on: P338; assay: Cytotoxicity against mouse […] cells assessed as reduction in cell viability after 24 to 72 hrs by MTT assay; format: functional, cell-based
[6] = Cytotoxicity against bovine GM07373 cells assessed as reduction in cell viability after 24 to 72 hrs by MTT assay; format: cell-based; conditions: Bos taurus
[7] = Cytotoxicity against mouse […] cells assessed as reduction in cell viability after 24 to 72 hrs by MTT assay; format: cell-based
[8] = tested on: IGR-1; assay: Cytotoxicity against human IGR-1 cells assessed as reduction in cell viability after 24 to 72 hrs by MTT assay; format: functional, cell-based
[9] = tested on: Mycobacterium tuberculosis; assay: Antitubercular activity against Mycobacterium tuberculosis H37Rv; format: functional
[10] = target: Acetylcholinesterase (Electrophorus electricus, UniProt O42275); assay: Inhibition of electric eel AChE using acetylthiocholine iodide as substrate measured for 120 secs by spectrophotometric analysis
[11] = target: T2, Estrogen receptor (Homo sapiens, UniProt P03372); assay: Inhibition of human estrogen receptor alpha expressed in HEK293 cells assessed as reduction in estrogen-induced transcriptional activation after 6 hrs by beta galactosidase reporter gene assay; format: cell-based
T2 sequence (P03372 whole entry): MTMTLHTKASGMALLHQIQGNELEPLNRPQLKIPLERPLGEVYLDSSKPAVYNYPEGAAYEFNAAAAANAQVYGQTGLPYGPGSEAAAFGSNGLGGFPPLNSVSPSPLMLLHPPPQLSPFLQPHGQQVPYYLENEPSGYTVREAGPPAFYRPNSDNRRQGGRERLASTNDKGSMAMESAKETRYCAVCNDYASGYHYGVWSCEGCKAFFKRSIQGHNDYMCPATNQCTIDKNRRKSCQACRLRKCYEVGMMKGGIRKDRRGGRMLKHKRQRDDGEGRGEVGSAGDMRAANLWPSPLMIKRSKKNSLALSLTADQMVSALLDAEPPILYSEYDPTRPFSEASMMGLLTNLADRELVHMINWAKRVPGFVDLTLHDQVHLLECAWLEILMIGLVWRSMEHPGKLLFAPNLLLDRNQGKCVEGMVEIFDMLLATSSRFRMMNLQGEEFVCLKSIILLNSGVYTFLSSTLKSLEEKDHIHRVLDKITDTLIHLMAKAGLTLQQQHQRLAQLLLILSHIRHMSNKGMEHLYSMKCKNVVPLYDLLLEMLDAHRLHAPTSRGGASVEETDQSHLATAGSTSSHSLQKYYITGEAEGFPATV

[12] = target: T2, Estrogen receptor; assay: Inhibition of human estrogen receptor alpha expressed in human LNCAP cells assessed as reduction in estrogen-induced transcriptional activation after 6 hrs by beta galactosidase reporter gene assay; format: cell-based
[13] = target: T2, Estrogen receptor; assay: Inhibition of human estrogen receptor alpha expressed in human MCF7 cells assessed as reduction in estrogen-induced transcriptional activation after 6 hrs by beta galactosidase reporter gene assay; format: cell-based
[14] = target: T2, Estrogen receptor; assay: Inhibition of human estrogen receptor alpha expressed in human MDA-MB-231 cells assessed as reduction in estrogen-induced transcriptional activation after 6 hrs by beta galactosidase reporter gene assay; format: cell-based
[15] = target: T3, Estrogen receptor (Homo sapiens) (UniProt P03372); assay: Displacement of [3H] estradiol from human estrogen receptor alpha after 18 hrs by scintillation counting analysis
T3 sequence (whole entry): T2 sequence (P03372 whole entry)

[16] = target: T4, Acetylcholinesterase (Bos taurus, UniProt P23795); assay: Inhibition of bovine erythrocyte AchE using acetylthiocholine iodide as substrate after 15 mins by spectrophotometric analysis
T4 sequence (P23795 whole entry): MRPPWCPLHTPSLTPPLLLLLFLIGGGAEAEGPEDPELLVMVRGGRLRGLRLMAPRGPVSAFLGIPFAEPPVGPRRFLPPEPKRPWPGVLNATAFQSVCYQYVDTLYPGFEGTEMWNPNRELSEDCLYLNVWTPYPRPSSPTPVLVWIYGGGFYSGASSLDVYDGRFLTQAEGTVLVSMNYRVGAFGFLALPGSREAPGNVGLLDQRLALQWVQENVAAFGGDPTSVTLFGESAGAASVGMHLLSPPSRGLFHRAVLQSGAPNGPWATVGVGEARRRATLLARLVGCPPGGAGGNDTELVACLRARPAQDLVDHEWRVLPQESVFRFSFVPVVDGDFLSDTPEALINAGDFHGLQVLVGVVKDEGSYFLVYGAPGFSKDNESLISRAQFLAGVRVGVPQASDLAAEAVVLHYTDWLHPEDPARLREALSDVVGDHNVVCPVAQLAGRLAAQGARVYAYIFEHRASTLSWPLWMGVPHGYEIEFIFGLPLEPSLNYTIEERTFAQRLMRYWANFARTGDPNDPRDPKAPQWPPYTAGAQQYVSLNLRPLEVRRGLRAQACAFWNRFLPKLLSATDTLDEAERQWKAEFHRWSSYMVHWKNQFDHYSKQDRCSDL

[17] = target: T2, Estrogen receptor; assay: Inhibition of estrogen receptor in human MCF-7 cells; format: cell-based
[18] = target: T1, Receptor tyrosine-protein kinase erbB-2; assay: Inhibition of HER2 in human MCF-7 cells; format: cell-based
[19] = Antioxidant activity assessed as reduction in oxidative stress; format: functional
[20] = target: Amyloid-beta precursor protein (Homo sapiens, UniProt P05067); assay: Inhibition of beta amyloid (unknown origin) deposition
[21] = Inhibition of bovine brain tubulin polymerization after 10 mins by UV-vis spectrophotometric analysis; parameters: species or system Bos taurus

T1 sequence (P04626 whole entry): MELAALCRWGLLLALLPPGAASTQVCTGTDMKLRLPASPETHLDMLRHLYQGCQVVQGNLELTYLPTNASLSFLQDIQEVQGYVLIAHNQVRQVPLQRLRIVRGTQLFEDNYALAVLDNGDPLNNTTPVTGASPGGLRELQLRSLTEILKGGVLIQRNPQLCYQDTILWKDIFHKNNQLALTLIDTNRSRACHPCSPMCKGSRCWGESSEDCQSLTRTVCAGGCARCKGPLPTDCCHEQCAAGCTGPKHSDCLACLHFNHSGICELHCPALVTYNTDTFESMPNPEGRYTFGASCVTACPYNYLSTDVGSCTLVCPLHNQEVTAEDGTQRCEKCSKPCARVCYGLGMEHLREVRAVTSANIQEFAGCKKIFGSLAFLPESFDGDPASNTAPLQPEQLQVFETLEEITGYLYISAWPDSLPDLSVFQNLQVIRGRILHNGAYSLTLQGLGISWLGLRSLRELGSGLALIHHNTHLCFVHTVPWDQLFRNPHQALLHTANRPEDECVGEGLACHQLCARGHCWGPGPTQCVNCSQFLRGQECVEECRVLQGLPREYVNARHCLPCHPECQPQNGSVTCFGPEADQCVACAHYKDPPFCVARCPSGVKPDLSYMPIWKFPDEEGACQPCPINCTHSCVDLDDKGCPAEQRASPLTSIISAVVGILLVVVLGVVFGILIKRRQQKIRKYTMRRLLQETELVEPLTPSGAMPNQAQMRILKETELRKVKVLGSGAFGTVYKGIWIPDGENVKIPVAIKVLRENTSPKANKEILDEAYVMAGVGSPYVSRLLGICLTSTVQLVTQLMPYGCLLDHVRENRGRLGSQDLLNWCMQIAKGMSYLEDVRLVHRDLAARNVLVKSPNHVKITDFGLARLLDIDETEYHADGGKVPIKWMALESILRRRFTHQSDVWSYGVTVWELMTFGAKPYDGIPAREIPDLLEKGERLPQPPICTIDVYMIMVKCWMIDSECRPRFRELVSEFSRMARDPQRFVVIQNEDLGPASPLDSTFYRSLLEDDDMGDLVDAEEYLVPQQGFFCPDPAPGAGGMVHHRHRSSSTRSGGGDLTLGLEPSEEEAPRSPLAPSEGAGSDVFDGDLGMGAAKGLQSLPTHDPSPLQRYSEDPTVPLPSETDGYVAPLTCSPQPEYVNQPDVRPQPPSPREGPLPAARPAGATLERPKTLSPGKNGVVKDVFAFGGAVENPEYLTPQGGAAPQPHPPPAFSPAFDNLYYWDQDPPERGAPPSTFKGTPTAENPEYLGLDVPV
Acetylcholinesterase (Electrophorus electricus, UniProt O42275), sequence (O42275 whole entry): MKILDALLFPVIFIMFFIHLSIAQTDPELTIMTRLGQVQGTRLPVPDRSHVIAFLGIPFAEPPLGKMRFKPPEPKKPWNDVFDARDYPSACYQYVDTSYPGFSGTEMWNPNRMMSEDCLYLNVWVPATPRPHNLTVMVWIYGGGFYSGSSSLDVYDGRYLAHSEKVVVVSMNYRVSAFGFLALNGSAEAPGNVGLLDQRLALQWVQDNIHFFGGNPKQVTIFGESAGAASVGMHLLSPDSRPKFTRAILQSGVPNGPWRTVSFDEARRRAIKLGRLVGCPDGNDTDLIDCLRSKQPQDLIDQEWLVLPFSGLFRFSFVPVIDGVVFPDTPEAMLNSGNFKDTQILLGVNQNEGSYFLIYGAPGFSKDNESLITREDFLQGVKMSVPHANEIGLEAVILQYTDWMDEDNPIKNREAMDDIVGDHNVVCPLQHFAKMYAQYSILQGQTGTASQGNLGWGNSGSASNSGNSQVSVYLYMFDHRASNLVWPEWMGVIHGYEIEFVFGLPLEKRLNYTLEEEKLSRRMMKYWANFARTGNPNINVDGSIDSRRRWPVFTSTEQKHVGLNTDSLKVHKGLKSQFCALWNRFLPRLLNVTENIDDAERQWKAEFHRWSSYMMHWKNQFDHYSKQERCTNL
Amyloid-beta precursor protein, sequence (P05067 whole entry): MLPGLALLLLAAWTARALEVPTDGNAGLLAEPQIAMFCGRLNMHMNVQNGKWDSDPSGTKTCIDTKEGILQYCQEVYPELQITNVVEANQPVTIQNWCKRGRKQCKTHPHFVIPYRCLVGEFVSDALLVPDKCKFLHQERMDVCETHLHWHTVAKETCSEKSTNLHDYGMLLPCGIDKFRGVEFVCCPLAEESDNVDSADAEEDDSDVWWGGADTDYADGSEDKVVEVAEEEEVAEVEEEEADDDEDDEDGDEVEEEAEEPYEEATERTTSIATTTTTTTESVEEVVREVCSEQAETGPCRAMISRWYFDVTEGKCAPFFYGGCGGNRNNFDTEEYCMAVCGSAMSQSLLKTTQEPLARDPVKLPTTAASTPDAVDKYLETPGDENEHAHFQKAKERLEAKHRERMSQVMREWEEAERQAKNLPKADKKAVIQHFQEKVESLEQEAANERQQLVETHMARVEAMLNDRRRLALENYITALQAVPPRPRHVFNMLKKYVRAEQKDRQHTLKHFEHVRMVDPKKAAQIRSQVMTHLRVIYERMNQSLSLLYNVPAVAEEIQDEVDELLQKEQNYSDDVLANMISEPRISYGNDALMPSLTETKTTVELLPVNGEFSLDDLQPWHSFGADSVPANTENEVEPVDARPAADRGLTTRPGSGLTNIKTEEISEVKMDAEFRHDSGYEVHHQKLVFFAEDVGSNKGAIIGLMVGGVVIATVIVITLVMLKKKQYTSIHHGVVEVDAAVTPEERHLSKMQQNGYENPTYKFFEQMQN

With `CCN[C@H]1CO[C@@H](O[C@H]2[C@H](OC[C@]34C#C/C=C\C#C[C@H]5N(C(=O)OCCS(=O)(=O)c6ccccc6)c6ccccc6[C@@]36O[C@]56CCC4)O[C@H](C)[C@@H](NO[C@H]3C[C@H](O)[C@H](SC(=O)c4c(C)c(I)c(O[C@@H]5O[C@@H](C)[C@H](O)[C@@H](OC)[C@H]5O)c(OC)c4OC)[C@@H](C)O3)[C@@H]2O)C[C@@H]1OC` as the compound, how does the pIC50 [1] read?
Its pIC50 is 9.00.

What about the pIC50 [2] of the same compound?
Its pIC50 is 9.00.

What does the source list for `CO[C@H]1/C=C\C=C(/C)C(=O)NC2=CC(=O)C(NCCCCNC3=C4C[C@@H](C)C[C@H](OC)[C@H](O)[C@@H](C)/C=C(\C)[C@H](OC(N)=O)[C@@H](OC)/C=C\C=C(/C)C(=O)NC(=CC3=O)C4=O)=C(C[C@@H](C)C[C@H](OC)[C@H](O)[C@@H](C)/C=C(\C)[C@@H]1OC(N)=O)C2=O`?
pIC50 [3]: 7.22; pIC50 [4]: 7.70

With `CC(C)[C@@H](C)/C=C/[C@@H](C)[C@H]1CC[C@H]2c3ccc4c(c3CC[C@]12C)C(=O)c1c(O)ccc(O)c1C4=O` as the compound, how does the pIC50 [5] read?
The pIC50 was 4.31.

And the pIC50 [6]?
The pIC50 was 4.47.

What about the pIC50 [7] of the same compound?
Its pIC50 is 4.64.

And the pIC50 [8]?
Its pIC50 is 4.64.

Which MIC [9] does the source give for `C[C@@]12CC[C@@H]3[C@@](CC[C@H]4[C@@]3(C)CCC[C@@]4(C)C(=O)O)(C/C1=N\NC(=O)c1ccccn1)C2` here?
The MIC was 10 to 20 µg/mL (≈ 22.9 to 45.7 µM).

Which MIC [9] does the source give for `C[C@@]12CC[C@@H]3[C@@](CC[C@H]4[C@@]3(C)CCC[C@@]4(C)C(=O)O)(C/C1=N\NC(=O)c1ccncc1)C2` here?
Its MIC is 10 to 20 µg/mL (≈ 22.9 to 45.7 µM).

With `CCN[C@H]1CO[C@@H](O[C@H]2[C@H](OCOC[C@@]34C#CCCC#C[C@@H]5N(C(=O)OCCS(=O)(=O)c6ccccc6)c6ccccc6[C@]36O[C@@]56CCC4)O[C@H](C)[C@@H](NO[C@H]3C[C@H](O)[C@H](SC(=O)c4c(C)c(I)c(O[C@@H]5O[C@@H](C)[C@H](O)[C@@H](OC)[C@H]5O)c(OC)c4OC)[C@@H](C)O3)[C@@H]2O)C[C@@H]1OC` as the compound, how does the pIC50 [1] read?
The pIC50 was 10.00.

What about the pIC50 [2] of the same compound?
The pIC50 was 6.80.

With `COc1ccc2c3c1O[C@H]1C[C@@H](O)CC[C@@]31CCN(CCCCCCCCCCCC[N+]1=Cc3ccc(OC)c4c3[C@@]3(C=C[C@H](O)C[C@@H]3O4)CC1)C2` as the compound, how does the pIC50 [10] read?
Its pIC50 is 7.92.

What does the source list for `C[C@]12CC[C@@H]3c4ccc(O)cc4CC[C@H]3[C@@H]1CC[C@@]2(O)C#CC(=O)OCC1CC#C/C=C\C#CCC1` (some centres not stated)?
pIC50 [11]: 5.00; pIC50 [12]: 4.48; pIC50 [13]: 4.51; pIC50 [14]: 4.32; Activity [15]: 0.51 µM

With `CCC1CCC2CC(Cc3nc4ccccc4c(N)c32)C1` (configuration not stated) as the compound, how does the pIC50 [16] read?
The pIC50 was 8.94.

For `C[C@@]12CC[C@@H]3[C@@](CC[C@H]4[C@@]3(C)CCC[C@@]4(C)C(=O)O)(C/C1=N\NC(=O)c1cccnc1)C2`, which MIC [9] is on record?
Its MIC is 10 to 20 µg/mL (≈ 22.9 to 45.7 µM).

With `CO[C@H]1/C=C\C=C(/C)C(=O)NC2=CC(=O)C(NC/C=C/CCC[C@@H]3C[C@H]4[C@@H]5CCc6cc(O)ccc6[C@H]5CC[C@]4(C)[C@H]3O)=C(C[C@@H](C)C[C@H](OC)[C@H](O)[C@@H](C)/C=C(\C)[C@@H]1OC(N)=O)C2=O` (stereo in doubt) as the compound, how does the pIC50 [17] read?
Its pIC50 is 7.10.

What about the pIC50 [18] of the same compound?
The pIC50 was 7.00.

What does the source list for `CO[C@H]1/C=C\C=C(/C)C(=O)NC2=CC(=O)C(NCC#CCC[C@@H]3C[C@H]4[C@@H]5CCc6cc(O)ccc6[C@H]5CC[C@]4(C)[C@H]3O)=C(C[C@@H](C)C[C@H](OC)[C@H](O)[C@@H](C)/C=C(\C)[C@@H]1OC(N)=O)C2=O` (stereo in doubt)?
pIC50 [17]: 6.66; pIC50 [18]: 7.00

With `O=C(CCCCC1CCSS1)NCCCNc1c2c(nc3cc(Cl)ccc13)CCCC2` (configuration not stated) [LIPOCRINE] as the compound, how does the pIC50 [19] read?
Its pIC50 is 5.00.

What about the pIC50 [20] of the same compound?
Its pIC50 is 4.35.

With `COc1cc2c(ccc1=O)[C@H]1CC[C@]3(C)[C@@H](O)CC[C@H]3[C@@H]1CC2` as the compound, how does the pIC50 [21] read?
Its pIC50 is 5.68.

Reference: ChEMBL document CHEMBL4229384, “Success stories of natural product-based hybrid molecules for multi-factorial diseases” (Eur J Med Chem, 2018)
